Source: ChEMBL document CHEMBL2380247, “Synthesis and biological evaluation of novel aliphatic amido-quaternary ammonium salts for anticancer chemotherapy: part II” (2013)

How the values were obtained:
Format in all cases: functional
NUGC-3 [1] = experiment: Antiproliferative activity against human NUGC3 cells at 3 uM by SRB assay
MDA-MB-231 [2] = experiment: Antiproliferative activity against human MDA-MB-231 cells by SRB assay
HCT-15 [3] = experiment: Antiproliferative activity against human HCT15 cells at 1 uM by SRB assay
NCI-H23 [4] = experiment: Antiproliferative activity against human NCI-H23 cells at 1 uM by SRB assay
NUGC-3 [5] = experiment: Antiproliferative activity against human NUGC3 cells at 10 uM by SRB assay
PC-3 [6] = experiment: Antiproliferative activity against human PC3 cells at 0.3 uM by SRB assay
HCT-15 [7] = experiment: Antiproliferative activity against human HCT15 cells at 0.3 uM by SRB assay
NUGC-3 [8] = experiment: Antiproliferative activity against human NUGC3 cells by SRB assay
NCI-H23 [9] = experiment: Antiproliferative activity against human NCI-H23 cells at 10 uM by SRB assay
NCI-H23 [10] = experiment: Antiproliferative activity against human NCI-H23 cells at 3 uM by SRB assay
HCT-15 [11] = experiment: Antiproliferative activity against human HCT15 cells by SRB assay
NCI-H23 [12] = experiment: Antiproliferative activity against human NCI-H23 cells at 0.3 uM by SRB assay
HCT-15 [13] = experiment: Antiproliferative activity against human HCT15 cells at 3 uM by SRB assay
ACHN [14] = experiment: Antiproliferative activity against human ACHN cells at 0.3 uM by SRB assay
MDA-MB-231 [15] = experiment: Antiproliferative activity against human MDA-MB-231 cells at 10 uM by SRB assay
PC-3 [16] = experiment: Antiproliferative activity against human PC3 cells by SRB assay
NUGC-3 [17] = experiment: Antiproliferative activity against human NUGC3 cells at 1 uM by SRB assay
PC-3 [18] = experiment: Antiproliferative activity against human PC3 cells at 10 uM by SRB assay
PC-3 [19] = experiment: Antiproliferative activity against human PC3 cells at 1 uM by SRB assay
HCT-15 [20] = experiment: Antiproliferative activity against human HCT15 cells at 10 uM by SRB assay
MDA-MB-231 [21] = experiment: Antiproliferative activity against human MDA-MB-231 cells at 0.1 uM by SRB assay
ACHN [22] = experiment: Antiproliferative activity against human ACHN cells at 3 uM by SRB assay
NCI-H23 [23] = experiment: Antiproliferative activity against human NCI-H23 cells by SRB assay
NUGC-3 [24] = experiment: Antiproliferative activity against human NUGC3 cells at 0.1 uM by SRB assay
NCI-H23 [25] = experiment: Antiproliferative activity against human NCI-H23 cells at 0.1 uM by SRB assay
ACHN [26] = experiment: Antiproliferative activity against human ACHN cells at 10 uM by SRB assay
PC-3 [27] = experiment: Antiproliferative activity against human PC3 cells at 3 uM by SRB assay
HCT-15 [28] = experiment: Antiproliferative activity against human HCT15 cells at 0.1 uM by SRB assay
NUGC-3 [29] = experiment: Antiproliferative activity against human NUGC3 cells at 0.3 uM by SRB assay
MDA-MB-231 [30] = experiment: Antiproliferative activity against human MDA-MB-231 cells at 3 uM by SRB assay
MDA-MB-231 [31] = experiment: Antiproliferative activity against human MDA-MB-231 cells at 1 uM by SRB assay
PC-3 [32] = experiment: Antiproliferative activity against human PC3 cells at 0.1 uM by SRB assay
ACHN [33] = experiment: Antiproliferative activity against human ACHN cells at 0.1 uM by SRB assay
ACHN [34] = experiment: Antiproliferative activity against human ACHN cells by SRB assay
ACHN [35] = experiment: Antiproliferative activity against human ACHN cells at 1 uM by SRB assay
MDA-MB-231 [36] = experiment: Antiproliferative activity against human MDA-MB-231 cells at 0.3 uM by SRB assay

SMILES | growth, % of control at 3 µM (NUGC-3 [1]) [%] | GI50 (MDA-MB-231 [2]) [nM] | growth, % of control at 1 µM (HCT-15 [3]) [%] | growth, % of control at 1 µM (NCI-H23 [4]) [%] | growth, % of control at 10 µM (NUGC-3 [5]) [%] | growth, % of control at 0.3 µM (PC-3 [6]) [%] | growth, % of control at 0.3 µM (HCT-15 [7]) [%] | GI50 (NUGC-3 [8]) [nM] | growth, % of control at 10 µM (NCI-H23 [9]) [%] | growth, % of control at 3 µM (NCI-H23 [10]) [%] | GI50 (HCT-15 [11]) [nM] | growth, % of control at 0.3 µM (NCI-H23 [12]) [%] | growth, % of control at 3 µM (HCT-15 [13]) [%] | growth, % of control at 0.3 µM (ACHN [14]) [%] | growth, % of control at 10 µM (MDA-MB-231 [15]) [%] | GI50 (PC-3 [16]) [nM] | growth, % of control at 1 µM (NUGC-3 [17]) [%] | growth, % of control at 10 µM (PC-3 [18]) [%] | growth, % of control at 1 µM (PC-3 [19]) [%] | growth, % of control at 10 µM (HCT-15 [20]) [%] | further results
C=CC[N+](C)(C)CCCN(C)C(=O)CCCCCCCCCCCCC | 4.58 | 1350 | 92.8 | 55.6 | -1.98 | 82.3 | 82.4 | 280 | -7.17 | 12.2 | > 10000 | 85.7 | 79.4 | 96.8 | 15.5 | 310 | 32.1 | -20.4 | 35.4 | 53.2 | growth, % of control at 0.1 µM (MDA-MB-231 [21]): 99.8%; growth, % of control at 3 µM (ACHN [22]): 67%; GI50 (NCI-H23 [23]): 460 nM; growth, % of control at 0.1 µM (NUGC-3 [24]): 80.1%; growth, % of control at 0.1 µM (NCI-H23 [25]): 88.5%; growth, % of control at 10 µM (ACHN [26]): 14.3%; growth, % of control at 3 µM (PC-3 [27]): -10.8%; growth, % of control at 0.1 µM (HCT-15 [28]): 90.4%; growth, % of control at 0.3 µM (NUGC-3 [29]): 82.8%; growth, % of control at 3 µM (MDA-MB-231 [30]): 48.3%; growth, % of control at 1 µM (MDA-MB-231 [31]): 86.8%; growth, % of control at 0.1 µM (PC-3 [32]): 93.3%; growth, % of control at 0.1 µM (ACHN [33]): 104%; GI50 (ACHN [34]): 1890 nM; growth, % of control at 1 µM (ACHN [35]): 96%; growth, % of control at 0.3 µM (MDA-MB-231 [36]): 98.9%
CCCCCCCCCCCCCCCC(=O)N(C)CC[N+](CC)(CC)Cc1ccccc1 | 1.3 | 1130 | 99.4 | 75.4 | -9.3 | 80.4 | 101 | 360 | 6.5 | 39.7 | > 10000 | 112 | 92.8 | 86.3 | -4.4 | 310 | 31.4 | -13.9 | 25.8 | 71.1 | growth, % of control at 0.1 µM (MDA-MB-231 [21]): 105%; growth, % of control at 3 µM (ACHN [22]): 28%; GI50 (NCI-H23 [23]): 1220 nM; growth, % of control at 0.1 µM (NUGC-3 [24]): 92.7%; growth, % of control at 0.1 µM (NCI-H23 [25]): 113%; growth, % of control at 10 µM (ACHN [26]): 1.6%; growth, % of control at 3 µM (PC-3 [27]): 1.4%; growth, % of control at 0.1 µM (HCT-15 [28]): 100%; growth, % of control at 0.3 µM (NUGC-3 [29]): 84.8%; growth, % of control at 3 µM (MDA-MB-231 [30]): 33.2%; growth, % of control at 1 µM (MDA-MB-231 [31]): 82.1%; growth, % of control at 0.1 µM (PC-3 [32]): 86.6%; growth, % of control at 0.1 µM (ACHN [33]): 83.4%; GI50 (ACHN [34]): 600 nM; growth, % of control at 1 µM (ACHN [35]): 52.3%; growth, % of control at 0.3 µM (MDA-MB-231 [36]): 96.5%
CCCCCCCCCCCCCC(=O)N(C)CCC[N+](C)(C)Cc1ccccc1 | 8.51 | 1410 | 93.6 | 70.4 | -11.6 | 87.4 | 86.7 | 430 | -11.5 | 14.7 | 2830 | 80 | 78.5 | 109 | -2.09 | 530 | 43.8 | -13.1 | 56.5 | 25.1 | growth, % of control at 0.1 µM (MDA-MB-231 [21]): 105%; growth, % of control at 3 µM (ACHN [22]): 72.3%; GI50 (NCI-H23 [23]): 660 nM; growth, % of control at 0.1 µM (NUGC-3 [24]): 84.5%; growth, % of control at 0.1 µM (NCI-H23 [25]): 81%; growth, % of control at 10 µM (ACHN [26]): 1.92%; growth, % of control at 3 µM (PC-3 [27]): 4.38%; growth, % of control at 0.1 µM (HCT-15 [28]): 89.9%; growth, % of control at 0.3 µM (NUGC-3 [29]): 90%; growth, % of control at 3 µM (MDA-MB-231 [30]): 44.2%; growth, % of control at 1 µM (MDA-MB-231 [31]): 97.2%; growth, % of control at 0.1 µM (PC-3 [32]): 101%; growth, % of control at 0.1 µM (ACHN [33]): 107%; GI50 (ACHN [34]): 1890 nM; growth, % of control at 1 µM (ACHN [35]): 99.3%; growth, % of control at 0.3 µM (MDA-MB-231 [36]): 106%
C=CC[N+](CC)(CC)CCN(C)C(=O)CCCCCCCCCCCCCCC | 5.3 | 440 | 78.6 | 19.3 | -6.2 | 81.8 | 87.9 | 270 | -15 | 10.7 | 1980 | 54.8 | 55.2 | 87.7 | -6.4 | 200 | 22.9 | -19.6 | 0.8 | 32 | growth, % of control at 0.1 µM (MDA-MB-231 [21]): 96.1%; growth, % of control at 3 µM (ACHN [22]): 8.1%; GI50 (NCI-H23 [23]): 170 nM; growth, % of control at 0.1 µM (NUGC-3 [24]): 101%; growth, % of control at 0.1 µM (NCI-H23 [25]): 81.2%; growth, % of control at 10 µM (ACHN [26]): -18.9%; growth, % of control at 3 µM (PC-3 [27]): -14.3%; growth, % of control at 0.1 µM (HCT-15 [28]): 86.1%; growth, % of control at 0.3 µM (NUGC-3 [29]): 76.9%; growth, % of control at 3 µM (MDA-MB-231 [30]): 21%; growth, % of control at 1 µM (MDA-MB-231 [31]): 38.7%; growth, % of control at 0.1 µM (PC-3 [32]): 92.9%; growth, % of control at 0.1 µM (ACHN [33]): 115%; GI50 (ACHN [34]): 350 nM; growth, % of control at 1 µM (ACHN [35]): 30.2%; growth, % of control at 0.3 µM (MDA-MB-231 [36]): 92.5%
